Among the data in patent EP1038880B1, “Androstanes and pregnanes for allosteric modulation of GABA receptor” (priority 1994, dated 1995) are inhibition values, retold here.

In the test the target is T1, Hippocampal Mineralocorticoid Receptors (Rattus norvegicus, UniProt P22199).
T1 construct: To isolate the mineralocorticoid receptor, brain cytosol fractions were prepared; from tissue; host or cells: rat brain (hippocampal) cytosol
T1 sequence (P22199 1-981): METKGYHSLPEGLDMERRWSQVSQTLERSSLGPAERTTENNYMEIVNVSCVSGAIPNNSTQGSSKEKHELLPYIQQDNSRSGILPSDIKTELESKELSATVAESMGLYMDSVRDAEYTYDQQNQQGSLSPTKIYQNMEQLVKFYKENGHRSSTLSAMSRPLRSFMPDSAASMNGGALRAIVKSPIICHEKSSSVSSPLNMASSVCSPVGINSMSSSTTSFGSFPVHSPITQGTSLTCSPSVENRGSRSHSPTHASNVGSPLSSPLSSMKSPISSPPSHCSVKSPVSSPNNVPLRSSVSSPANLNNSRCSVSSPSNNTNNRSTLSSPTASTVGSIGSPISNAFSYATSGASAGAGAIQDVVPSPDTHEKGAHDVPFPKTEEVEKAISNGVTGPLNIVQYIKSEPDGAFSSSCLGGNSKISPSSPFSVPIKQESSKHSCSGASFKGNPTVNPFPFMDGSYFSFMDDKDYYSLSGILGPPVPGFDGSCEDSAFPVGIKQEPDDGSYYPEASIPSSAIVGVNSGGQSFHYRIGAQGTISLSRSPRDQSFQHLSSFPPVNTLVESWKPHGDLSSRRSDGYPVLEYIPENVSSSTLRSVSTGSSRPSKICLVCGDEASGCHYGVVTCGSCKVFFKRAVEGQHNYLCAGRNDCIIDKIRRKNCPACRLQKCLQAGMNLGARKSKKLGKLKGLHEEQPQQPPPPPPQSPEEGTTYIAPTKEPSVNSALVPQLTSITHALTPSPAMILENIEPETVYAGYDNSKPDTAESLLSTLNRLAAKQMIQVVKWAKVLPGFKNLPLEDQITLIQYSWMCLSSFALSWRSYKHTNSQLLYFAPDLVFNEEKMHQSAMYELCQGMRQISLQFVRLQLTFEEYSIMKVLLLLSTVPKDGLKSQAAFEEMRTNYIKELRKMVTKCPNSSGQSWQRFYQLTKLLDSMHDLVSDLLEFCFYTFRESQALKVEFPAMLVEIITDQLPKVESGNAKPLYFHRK
In words: Inhibition of 3H-aldosterone binding, brain cytosol. The following applies: competitor 10^-6M; 3 nM 3H-aldosterone, RU28362 0.5 µM. Also noted: species or system rats. The method, then: Various hormonal activities of representative neuroactive steroids were further studied through testing their potential estrogenic, mineralocorticoid and glucocorticoid activities. These activities were analyzed by monitoring the ability of the compounds to inhibit binding of the steroid hormones to their respective hormone receptors.
In Table 3, rats were adrenalectomized 3 days prior to sacrifice. […] Table 2. Inhibition of 3H-Progesterone Binding to the Bovine Uteral Progesterone Receptors
Table 3. Inhibition of 3H-Aldosterone Binding to Hippocampal Mineralocorticoid Receptors

As for `C[C@]12CC[C@@H](O)C[C@@H]1CC[C@@H]1[C@@H]2CC[C@]2(C)[C@@H](C(=O)CO)CC[C@@H]12` [3α,21-dihydroxy-5α-pregnan-20-one], the inhibition at 1 µM was 76.7%.

A word on the inhibition: it is the drop in the measured response relative to a control, in per cent. Lower therefore signals a response near the control.
